# In patent US10947188B2, “Small molecule ferroptosis inducers” (THE TRUSTEES OF COLUMBIA UNIVERSITY IN THE CITY OF NEW YORK, priority 2016, dated 2021):
# Experiments:
# HT-1080 = assay: Modulatory profiling: Alamar Blue viability, lethal compound cotreated with death modulator (EC50, AUC); assay type: cell-based; set-up: AUC, modulator HT.3MA / AUC, modulator HT.ALLN / AUC HT.ATA / AUC HT.ActD / AUC HT.BHA / AUC HT.BHT / AUC HT.BocD / AUC HT.CHX / AUC HT.Co2+ / AUC HT.DPQ / AUC HT.EGTA / AUC HT.Lmim / AUC HT.NAD+ / AUC HT.Nec-1 / AUC HT.SP600125 / AUC HT.TLCK / AUC HT.U0126: unit not given beside the values; settings: for AUC HT.ATA: HT-1080, modulator ATA; for AUC HT.ActD: HT-1080, modulator ActD; for AUC HT.BHA: HT-1080, modulator BHA; for AUC HT.BHT: HT-1080, modulator BHT; for AUC HT.BocD: HT-1080, modulator BocD; for AUC HT.CHX: HT-1080, modulator CHX; for AUC HT.Co2+: HT-1080, modulator Co2+; for AUC HT.CspA: HT-1080, modulator CspA; for AUC HT.DPQ: HT-1080, modulator DPQ; for AUC HT.EGTA: HT-1080, modulator EGTA; for AUC HT.Gd3+: HT-1080, modulator Gd3+; for AUC HT.LNAME: HT-1080, modulator LNAME; for AUC HT.Lmim: HT-1080, modulator Lmim; for AUC HT.NAD+: HT-1080, modulator NAD+; for AUC HT.NMMA: HT-1080, modulator NMMA; for AUC HT.Nec-1: HT-1080, modulator Nec-1; for AUC HT.Pepstatin: HT-1080, modulator Pepstatin; for AUC HT.SP600125: HT-1080, modulator SP600125; for AUC HT.TLCK: HT-1080, modulator TLCK; for AUC HT.U0126: HT-1080, modulator U0126; for HT.atoc (AUC) / HT.bCarotene (AUC) / HT.deferox (AUC) / HT.digoxin (AUC) / HT.trolox (AUC) / HT.zVAD (AUC): HT-1080; for HT.atoc (AUC): modulator atoc; for HT.bCarotene (AUC): modulator bCarotene; for HT.deferox (AUC): modulator deferox; for HT.digoxin (AUC): modulator digoxin; for HT.trolox (AUC): modulator trolox; for HT.zVAD (AUC): modulator zVAD; for AUC, modulator HT.3MA / AUC, modulator HT.ALLN: HT-1080 cells, modulatory profile value (AUC); for AUC, modulator HT.3MA: lethal compound cotreated with modulator 3MA; for AUC, modulator HT.ALLN: lethal compound cotreated with modulator ALLN; on AUC HT.BHA: reference of the scale not given here; on AUC HT.EGTA: reference of the scale not given here
# BJeLR = assay: as above; assay type: cell-based, human; set-up: AUC, modulator BJ.Gd3+ / AUC, modulator BJ.LNAME / AUC, modulator BJ.Lmin / AUC, modulator BJ.3MA / AUC, modulator BJ.ALLN / AUC, modulator BJ.Boc D / AUC, modulator BJ.CHX / AUC, modulator BJ.Co2+ / AUC, modulator BJ.Nec-1 / AUC, modulator BJ.Pepstatin / AUC, modulator BJ.TLCK / AUC, modulator BJ.atoc / AUC, modulator BJ.trolox / AUC, modulator BJ.zVAD: unit not given beside the values; settings: BJeLR cells, modulatory profile value (AUC); for AUC, modulator BJ.3MA: lethal compound cotreated with modulator 3MA; for AUC, modulator BJ.ALLN: lethal compound cotreated with modulator ALLN; for AUC, modulator BJ.Boc D: lethal compound cotreated with modulator Boc D; for AUC, modulator BJ.CHX: lethal compound cotreated with modulator CHX; for AUC, modulator BJ.Co2+: lethal compound cotreated with modulator Co2+; for AUC, modulator BJ.DPQ: lethal compound cotreated with modulator DPQ; for AUC, modulator BJ.Gd3+: lethal compound cotreated with modulator Gd3+; for AUC, modulator BJ.LNAME: lethal compound cotreated with modulator LNAME; for AUC, modulator BJ.Lmin/NAD+: lethal compound cotreated with modulator Lmin/NAD+; for AUC, modulator BJ.Lmin: lethal compound cotreated with modulator Lmin; for AUC, modulator BJ.NAD+: lethal compound cotreated with modulator NAD+; for AUC, modulator BJ.NMMA: lethal compound cotreated with modulator NMMA; for AUC, modulator BJ.Nec-1: lethal compound cotreated with modulator Nec-1; for AUC, modulator BJ.Pepstatin: lethal compound cotreated with modulator Pepstatin; for AUC, modulator BJ.TLCK: lethal compound cotreated with modulator TLCK; for AUC, modulator BJ.atoc: lethal compound cotreated with modulator atoc; for AUC, modulator BJ.trolox: lethal compound cotreated with modulator trolox; for AUC, modulator BJ.zVAD: lethal compound cotreated with modulator zVAD; on AUC, modulator BJ.3MA: reference of the scale not given here; on AUC, modulator BJ.ALLN: reference of the scale not given here; on AUC, modulator BJ.Boc D: reference of the scale not given here; on AUC, modulator BJ.CHX: reference of the scale not given here; on AUC, modulator BJ.Co2+: reference of the scale not given here; on AUC, modulator BJ.DPQ: reference of the scale not given here; on AUC, modulator BJ.Gd3+: reference of the scale not given here; on AUC, modulator BJ.LNAME: reference of the scale not given here; on AUC, modulator BJ.NAD+: reference of the scale not given here; on AUC, modulator BJ.NMMA: reference of the scale not given here; on AUC, modulator BJ.Nec-1: reference of the scale not given here; on AUC, modulator BJ.Pepstatin: reference of the scale not given here; on AUC, modulator BJ.TLCK: reference of the scale not given here
compound,measurement,setting,value
COc1ccc(Nc2ccc3c(c2)=NC2(CCCCC2)[N+]=3[O-])cc1 [CIL9],AUC HT.ATA,HT-1080,−0.003144
same,AUC HT.ActD,HT-1080,−0.064
same,AUC HT.BHA,HT-1080,−0.04477
same,AUC HT.BHT,HT-1080,−0.1803
same,AUC HT.BocD,HT-1080,−0.02376
same,AUC HT.CHX,HT-1080,0.07227
same,AUC HT.Co2+,HT-1080,0.01754
same,AUC HT.CspA,HT-1080,−0.03079
same,AUC HT.DPQ,HT-1080,−0.003317
same,AUC HT.EGTA,HT-1080,−0.006848
same,AUC HT.Gd3+,HT-1080,−0.04358
same,AUC HT.LNAME,HT-1080,0.02124
same,AUC HT.Lmim,HT-1080,−0.05469
same,AUC HT.NAD+,HT-1080,0.02617
same,AUC HT.NMMA,HT-1080,−0.03733
same,AUC HT.Nec-1,HT-1080,0.02133
same,AUC HT.Pepstatin,HT-1080,−0.002188
same,AUC HT.SP600125,HT-1080,0.01016
same,AUC HT.TLCK,HT-1080,0.005514
same,AUC HT.U0126,HT-1080,0.03915
same,HT.atoc (AUC),HT-1080,0.05157
same,HT.bCarotene (AUC),HT-1080,−0.006502
same,HT.deferox (AUC),HT-1080,0.05678
same,HT.digoxin (AUC),HT-1080,−0.01984
same,HT.trolox (AUC),HT-1080,−0.03599
same,HT.zVAD (AUC),HT-1080,−0.00166
same,"AUC, modulator HT.3MA",HT-1080,0.04492
same,"AUC, modulator HT.ALLN",HT-1080,−0.02077
same,"AUC, modulator BJ.3MA",BJeLR,0.0465
same,"AUC, modulator BJ.ALLN",BJeLR,−0.1202
same,"AUC, modulator BJ.Boc D",BJeLR,−0.06171
same,"AUC, modulator BJ.CHX",BJeLR,0.03696
same,"AUC, modulator BJ.Co2+",BJeLR,−0.009162
same,"AUC, modulator BJ.DPQ",BJeLR,−0.01225
same,"AUC, modulator BJ.Gd3+",BJeLR,−0.01038
same,"AUC, modulator BJ.LNAME",BJeLR,0.01336
same,"AUC, modulator BJ.Lmin/NAD+",BJeLR,0.01499
same,"AUC, modulator BJ.Lmin",BJeLR,−0.03967
same,"AUC, modulator BJ.NAD+",BJeLR,0.0007181
same,"AUC, modulator BJ.NMMA",BJeLR,−0.01541
same,"AUC, modulator BJ.Nec-1",BJeLR,0.02689
same,"AUC, modulator BJ.Pepstatin",BJeLR,0.0182
same,"AUC, modulator BJ.TLCK",BJeLR,−0.01752
same,"AUC, modulator BJ.atoc",BJeLR,0.02754
same,"AUC, modulator BJ.trolox",BJeLR,0.05397
same,"AUC, modulator BJ.zVAD",BJeLR,−0.02708
O=C1C(Cl)=C(N2CCOCC2)C(=O)C(Cl)=C1N1CCOCC1 [CIL11],AUC HT.ATA,HT-1080,0.0148
same,AUC HT.ActD,HT-1080,−0.0343
same,AUC HT.BHA,HT-1080,−0.01902
same,AUC HT.BHT,HT-1080,−0.09641
same,AUC HT.BocD,HT-1080,0.07911
same,AUC HT.CHX,HT-1080,0.007052
same,AUC HT.Co2+,HT-1080,0.05358
same,AUC HT.CspA,HT-1080,−0.005498
same,AUC HT.DPQ,HT-1080,0.003904
same,AUC HT.EGTA,HT-1080,0.004002
same,AUC HT.Gd3+,HT-1080,−0.0298
same,AUC HT.LNAME,HT-1080,0.02954
same,AUC HT.Lmim,HT-1080,−0.034
same,AUC HT.NAD+,HT-1080,0.02582
same,AUC HT.NMMA,HT-1080,−0.02554
same,AUC HT.Nec-1,HT-1080,0.01983
same,AUC HT.Pepstatin,HT-1080,−0.003096
same,AUC HT.SP600125,HT-1080,−0.02876
same,AUC HT.TLCK,HT-1080,0.01902
same,AUC HT.U0126,HT-1080,0.06089
same,HT.atoc (AUC),HT-1080,0.07926
same,HT.bCarotene (AUC),HT-1080,−0.01827
same,HT.deferox (AUC),HT-1080,0.0278
same,HT.digoxin (AUC),HT-1080,−0.01376
same,HT.trolox (AUC),HT-1080,−0.02115
same,HT.zVAD (AUC),HT-1080,−0.002495
same,"AUC, modulator HT.3MA",HT-1080,0.0001144
same,"AUC, modulator HT.ALLN",HT-1080,0.01794
same,"AUC, modulator BJ.3MA",BJeLR,0.09004
same,"AUC, modulator BJ.ALLN",BJeLR,0.01538
same,"AUC, modulator BJ.Boc D",BJeLR,−0.04323
same,"AUC, modulator BJ.CHX",BJeLR,0.1239
same,"AUC, modulator BJ.Co2+",BJeLR,0.07771
same,"AUC, modulator BJ.DPQ",BJeLR,−0.01566
same,"AUC, modulator BJ.Gd3+",BJeLR,0.02905
same,"AUC, modulator BJ.LNAME",BJeLR,−0.0003217
same,"AUC, modulator BJ.Lmin/NAD+",BJeLR,0.01344
same,"AUC, modulator BJ.Lmin",BJeLR,−0.04034
same,"AUC, modulator BJ.NAD+",BJeLR,−0.03919
same,"AUC, modulator BJ.NMMA",BJeLR,−0.00378
same,"AUC, modulator BJ.Nec-1",BJeLR,0.02974
same,"AUC, modulator BJ.Pepstatin",BJeLR,0.04125
same,"AUC, modulator BJ.TLCK",BJeLR,−0.01155
same,"AUC, modulator BJ.atoc",BJeLR,−0.02082
same,"AUC, modulator BJ.trolox",BJeLR,−0.01782
same,"AUC, modulator BJ.zVAD",BJeLR,−0.004517
O=c1c(Cl)c(Cl)cnn1-c1ccc(Cl)c(C(F)(F)F)c1 [CIL25],AUC HT.ATA,HT-1080,0.06489
same,AUC HT.ActD,HT-1080,−0.03585
same,AUC HT.BHA,HT-1080,−0.01547
same,AUC HT.BHT,HT-1080,−0.1041
same,AUC HT.BocD,HT-1080,0.05183
same,AUC HT.CHX,HT-1080,−0.01604
same,AUC HT.Co2+,HT-1080,−0.06128
same,AUC HT.CspA,HT-1080,0.01073
same,AUC HT.DPQ,HT-1080,0.02629
same,AUC HT.EGTA,HT-1080,0.01624
same,AUC HT.Gd3+,HT-1080,0.01713
same,AUC HT.LNAME,HT-1080,0.02663
same,AUC HT.Lmim,HT-1080,0.01684
same,AUC HT.NAD+,HT-1080,−0.03051
same,AUC HT.NMMA,HT-1080,−0.006639
same,HT.atoc (AUC),HT-1080,0.04405
same,HT.bCarotene (AUC),HT-1080,0.009082
same,HT.deferox (AUC),HT-1080,0.07763
same,HT.digoxin (AUC),HT-1080,−0.007149
same,HT.trolox (AUC),HT-1080,−0.02562
same,HT.zVAD (AUC),HT-1080,0.03342
same,"AUC, modulator HT.3MA",HT-1080,0.01605
same,"AUC, modulator HT.ALLN",HT-1080,−0.0257
same,"AUC, modulator BJ.3MA",BJeLR,0.02374
same,"AUC, modulator BJ.ALLN",BJeLR,−0.07209
same,"AUC, modulator BJ.Boc D",BJeLR,−0.009758
same,"AUC, modulator BJ.CHX",BJeLR,−0.0273
same,"AUC, modulator BJ.Co2+",BJeLR,−0.003244
same,"AUC, modulator BJ.DPQ",BJeLR,0.001852
same,"AUC, modulator BJ.Gd3+",BJeLR,0.04216
same,"AUC, modulator BJ.LNAME",BJeLR,−0.004428
same,"AUC, modulator BJ.Lmin/NAD+",BJeLR,0.09246
same,"AUC, modulator BJ.Lmin",BJeLR,0.01628
same,"AUC, modulator BJ.NAD+",BJeLR,0.06106
same,"AUC, modulator BJ.NMMA",BJeLR,0.01683
same,"AUC, modulator BJ.Nec-1",BJeLR,0.03297
same,"AUC, modulator BJ.Pepstatin",BJeLR,−0.00415
same,"AUC, modulator BJ.TLCK",BJeLR,−0.05889
same,"AUC, modulator BJ.atoc",BJeLR,0.02909
same,"AUC, modulator BJ.trolox",BJeLR,−0.001029
same,"AUC, modulator BJ.zVAD",BJeLR,0.03879
